Patent publication US9695155B2, “Herbicidal substituted pyrimidinyloxy benzene compounds” (E. I. DU PONT DE NEMOURS AND COMPANY, priority 2013, dated 2017)

Legend:
barnyardgrass [1] = assay: Test A postemergence; type: in vivo, Echinochloa crus-galli
Procedure, shortened: (§1)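 Greenhouse pot test, loam/sand soil. Formulation: non-phytotoxic solvent mix plus surfactant. Pre: directed spray onto soil after sowing. Post: plants at 1–2 leaf, 2–10 cm. Rated visually vs untreated controls at ~10 d, 0 (no effect) to 100 (complete control).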

large (Lg) crabgrass = assay: Test A postemergence; type: in vivo, Digitaria sanguinalis
Procedure, shortened: as §1

giant foxtail [2] = assay: Test A postemergence; type: in vivo, Setaria faberii
Procedure, shortened: as §1

morningglory = assay: Test A postemergence; type: in vivo, Ipomoea spp.
Procedure, shortened: as §1

velvetleaf [3] = assay: Test A postemergence; type: in vivo, Abutilon theophrasti
Procedure, shortened: as §1

corn = assay: Test A postemergence; type: in vivo, Zea mays
Procedure, shortened: as §1

Heteranthera limosa = assay: Test B flooded paddy test; type: in vivo; settings: Flood, 250 g ai/ha, 0 to 100 scale where 0 is no effect and 100 is complete control
Procedure, shortened: (§2)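 Post-emergence paddy-water application at the 2-leaf stage, with 3 cm flood kept for the whole test. Response was judged visually relative to controls after 13 to 15 greenhouse days, 0 indicating no effect and 100 complete control.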

barnyardgrass [4] = assay: Test B flooded paddy test; type: in vivo, Echinochloa crus-galli; settings: Flood, 250 g ai/ha, 0 to 100 scale where 0 is no effect and 100 is complete control
Procedure, shortened: as §2

wheat, winter = assay: Test C preemergence; type: in vivo, Triticum aestivum; settings: for Wheat plant response rating: preemergence; for Plant response rating, Wheat: Preemergence, scale 0 to 100, 0 no effect, 100 complete control
Text: (§3) Seeds of plant species selected from blackgrass (Alopecurus myosuroides), Italian ryegrass (Lolium multiflorum), wheat, winter (winter wheat, Triticum aestivum), galium (catchweed bedstraw, Galium aparine), corn (Zea mays), large (Lg) crabgrass (Digitaria sanguinalis), giant foxtail (Setaria faberii), johnsongrass (Sorghum halepense), lambsquarters (Chenopodium album), morningglory (Ipomoea coccinea), yellow nutsedge (Cyperus esculentus), pigweed (Amaranthus retroflexus), ragweed (common ragweed, Ambrosia elatior), soybean (Glycine max), barnyardgrass (Echinochloa crus-galli), oilseed rape (Brassica napus), waterhemp (common waterhemp, Amaranthus rudis), kochia (Kochia scoparia), wild oat (Avena fatua), surinam grass (Brachiaria decumbens), foxtail, green (green foxtail, Setaria viridis), goosegrass (Eleusine indica), bromegrass, downy (downy bromegrass, Bromus tectorum), nightshade (eastern black nightshade, Solanum ptycanthum), cocklebur (common cocklebur, Xanthium strumarium), cupgrass, woolly (woolly cupgrass, Eriochloa villosa), bermudagrass (Cynodon dactylon), sunflower, (common oilseed sunflower, Helianthus annuus), Russian thistle (Salsola kali), and velvetleaf (Abutilon theophrasti) were planted into a blend of loam soil and sand and treated preemergence with test chemicals formulated in a non-phytotoxic solvent mixture which included a surfactant.
(§4) At the same time, plants selected from these crop and weed species and also barley, winter (winter barley, Hordeum vulgare), windgrass (Apera spica-venti), chickweed (common chickweed, Stellaria media), deadnettle (henbit deadnettle, Lamium amplexicaule), and canarygrass (littleseed canarygrass, Phalaris minor) were planted in pots containing Redi-Earth® planting medium (Scotts Company, 14111 Scottslawn Road, Marysville, Ohio 43041) comprising spaghnum peat moss, vermiculite, wetting agent and starter nutrients and treated with postemergence applications of test chemicals formulated in the same manner. Plants ranged in height from 2 to 18 cm (1- to 4-leaf stage) for postemergence treatments. Treated plants and controls were maintained in a greenhouse for 13 to 15 days, after which time all species were compared to controls and visually evaluated. Plant response ratings, summarized in Table C, are based on a scale of 0 to 100 where 0 is no effect and 100 is complete control. A dash (-) response means no test result.

giant foxtail [5] = assay: Test C preemergence; type: in vivo, Setaria faberii; settings: for Foxtail, Giant plant response rating: preemergence; for Plant response rating, Foxtail, Giant: Preemergence, scale 0 to 100, 0 no effect, 100 complete control
Text: as §3, §4

yellow nutsedge = assay: Test C preemergence; type: in vivo, Cyperus esculentus; settings: for Nutsedge, Yellow plant response rating: preemergence
Text: as §3, §4

pigweed = assay: Test C preemergence; type: in vivo, Amaranthus retroflexus; settings: for Pigweed plant response rating: preemergence; for Plant response rating, Pigweed: Preemergence, scale 0 to 100, 0 no effect, 100 complete control
Text: as §3, §4

velvetleaf [6] = assay: Test C preemergence; type: in vivo, Abutilon theophrasti; settings: for Velvetleaf plant response rating: preemergence; for Plant response rating, Velvetleaf: Preemergence, scale 0 to 100, 0 no effect, 100 complete control
Text: as §3, §4

[7] = 125 g ai/ha, 0 to 100 scale where 0 is no effect and 100 is complete control
[8] = 500 g ai/ha, 0 to 100 scale, 0 no effect, 100 complete control
[9] = 31 g ai/ha, 0 to 100 scale, 0 no effect, 100 complete control
[10] = 16 g ai/ha, scale 0 to 100 (0 no effect, 100 complete control)
[11] = 62 g ai/ha, scale 0 (no effect) to 100 (complete control)
[12] = 125 g ai/ha, scale 0 (no effect) to 100 (complete control)
[13] = 500 g ai/ha, 0 to 100 scale where 0 is no effect and 100 is complete control
[14] = 125 g ai/ha, 0 to 100 scale, 0 no effect, 100 complete control

Row | Structure (SMILES) | Plant response rating, Ducksalad (Heteranthera limosa) | Plant response rating, Barnyardgrass (barnyardgrass [4]) | Plant response rating, Barnyardgrass (barnyardgrass [1]; [9]) | Plant response rating, Foxtail, Giant (giant foxtail [2]; [9]) | Plant response rating, Corn (corn; [9]) | Wheat plant response rating (wheat, winter; [10]) | Wheat plant response rating (wheat, winter; [11]) | Wheat plant response rating (wheat, winter; [12]) | Foxtail, Giant plant response rating (giant foxtail [5]; [10]) | Foxtail, Giant plant response rating (giant foxtail [5]; [11]) | Foxtail, Giant plant response rating (giant foxtail [5]; [12]) | Plant response rating, Foxtail, Giant (giant foxtail [5]; 31 g ai/ha) | Nutsedge, Yellow plant response rating (yellow nutsedge; [10]) | Nutsedge, Yellow plant response rating (yellow nutsedge; [11]) | Nutsedge, Yellow plant response rating (yellow nutsedge; [12]) | Pigweed plant response rating (pigweed; [10]) | Pigweed plant response rating (pigweed; [11]) | Pigweed plant response rating (pigweed; [12]) | Velvetleaf plant response rating (velvetleaf [6]; [10]) | Velvetleaf plant response rating (velvetleaf [6]; [12]) | also measured
1 | FC(F)(F)c1ccn(-c2ccccc2Oc2ncc(Cl)cn2)n1 [Compound 2, 5-chloro-2-[2-[3-(trifluoromethyl)-1H-pyrazol-1-yl]phenoxy]pyrimidine] | – | – | – | – | – | – | – | – | – | – | – | – | – | – | – | – | – | – | – | – | pest or weed control at 125 g/ha (barnyardgrass [1]; Echinochloa crus-galli, post-emergence, 240 h, 125 g ai/ha, 0 to 100 scale where 0 is no effect and 100 is complete control, read-out: Plant response rating, Barnyardgrass): 30%; pest or weed control at 500 g/ha (barnyardgrass [1]; Echinochloa crus-galli, post-emergence, 240 h, 500 g ai/ha, 0 to 100 scale, 0 no effect, 100 complete control, read-out: Plant response rating Barnyardgrass): 70%; pest or weed control at 125 g/ha (large (Lg) crabgrass; Digitaria sanguinalis, post-emergence, 240 h, 125 g ai/ha, 0 to 100 scale where 0 is no effect and 100 is complete control, read-out: Plant response rating, Crabgrass, Large): 20%; pest or weed control at 500 g/ha (large (Lg) crabgrass; Digitaria sanguinalis, post-emergence, 240 h, 500 g ai/ha, 0 to 100 scale, 0 no effect, 100 complete control, read-out: Plant response rating Crabgrass, Large): 60%; pest or weed control at 125 g/ha (giant foxtail [2]; Setaria faberi, post-emergence, 240 h, 125 g ai/ha, 0 to 100 scale where 0 is no effect and 100 is complete control, read-out: Plant response rating, Foxtail, Giant): 10%; pest or weed control at 500 g/ha (giant foxtail [2]; Setaria faberi, post-emergence, 240 h, 500 g ai/ha, 0 to 100 scale, 0 no effect, 100 complete control, read-out: Plant response rating Foxtail, Giant): 80%; pest or weed control at 125 g/ha (morningglory; Ipomoea, post-emergence, 240 h, 125 g ai/ha, 0 to 100 scale where 0 is no effect and 100 is complete control, read-out: Plant response rating, Morningglory): 30%; pest or weed control at 500 g/ha (morningglory; Ipomoea, post-emergence, 240 h, 500 g ai/ha, 0 to 100 scale, 0 no effect, 100 complete control, read-out: Plant response rating Morningglory): 70%; pest or weed control at 500 g/ha (velvetleaf [3]; Abutilon theophrasti, post-emergence, 240 h, 500 g ai/ha, 0 to 100 scale, 0 no effect, 100 complete control, read-out: Plant response rating Velvetleaf): 60%; Corn plant response rating (crop injury, 0 = no effect, 100 = complete kill) at 125 g/ha (corn; Zea mays, post-emergence, 240 h, 125 g ai/ha, 0 to 100 scale where 0 is no effect and 100 is complete control): 0%; plant injury at 500 g/ha (corn; Zea mays, post-emergence, 240 h, 500 g ai/ha, 0 to 100 scale, 0 no effect, 100 complete control, read-out: Plant response rating Corn): 40%; pest or weed control at 250 g/ha (Heteranthera limosa; Heteranthera limosa, read-out: Plant response rating, Ducksalad): 45%; pest or weed control at 250 g/ha (barnyardgrass [4]; Echinochloa crus-galli, read-out: Plant response rating, Barnyardgrass): 0%
2 | Clc1cnc(Oc2ccccc2-n2cc(Cl)cn2)nc1 [Compound 3] | 90 | 0 | – | – | – | – | – | – | – | – | – | – | – | – | – | – | – | – | – | – | Plant response rating, Barnyardgrass (barnyardgrass [1]; [7]): 10; Plant response rating, Barnyardgrass (barnyardgrass [1]; [8]): 90; Plant response rating, Crabgrass, Large (large (Lg) crabgrass; [7]): 10; Plant response rating, Crabgrass, Large (large (Lg) crabgrass; [8]): 80; Plant response rating, Foxtail, Giant (giant foxtail [2]; [7]): 30; Plant response rating, Foxtail, Giant (giant foxtail [2]; [8]): 90; Plant response rating, Morningglory (morningglory; [7]): 10; Plant response rating, Morningglory (morningglory; [8]): 70; Plant response rating, Velvetleaf (velvetleaf [3]; [7]): 100; Plant response rating, Velvetleaf (velvetleaf [3]; [8]): 100; Plant response rating, Corn (corn; [7]): 0; Plant response rating, Corn (corn; [8]): 40
3 | FCc1cccc(Oc2ncc(F)cn2)c1-n1cc(C(F)(F)F)cn1 [Compound 118] | 90 | 50 | 30 | 30 | 10 | 0 | 10 | 90 | 25 | 95 | 100 | 75 | 0 | 25 | 70 | 90 | 100 | 100 | 100 | 100 | Plant response rating, Barnyardgrass (barnyardgrass [1]; [7]): 80; Plant response rating, Foxtail, Giant (giant foxtail [2]; [7]): 80; Plant response rating, Corn (corn; [7]): 50; Plant response rating, Wheat (wheat, winter; 31 g ai/ha): 0; Plant response rating, Nutsedge, Yellow (yellow nutsedge; Preemergence, 31 g ai/ha, scale 0 to 100, 0 no effect, 100 complete control): 5; Plant response rating, Pigweed (pigweed; 31 g ai/ha): 100; Velvetleaf plant response rating (velvetleaf [6]; [11]): 100; Plant response rating, Velvetleaf (velvetleaf [6]; 31 g ai/ha): 100
4 | COc1cnn(-c2c(C#N)cccc2Oc2ncc(Cl)cn2)c1 [Compound 137] | 30 | 0 | – | – | – | 0 | 0 | 0 | 35 | 60 | 90 | 5 | 0 | 5 | 10 | 75 | 90 | 100 | 40 | 85 | Barnyardgrass plant response rating (barnyardgrass [1]; [7]): 0; Plant response rating, Barnyardgrass (barnyardgrass [1]; [13]): 100; Foxtail, Giant plant response rating (giant foxtail [2]; [7]): 70; Plant response rating, Foxtail, Giant (giant foxtail [2]; [13]): 100; Corn plant response rating (corn; [7]): 30; Plant response rating, Corn (corn; [13]): 80; Velvetleaf plant response rating (velvetleaf [6]; [11]): 65
5 | N#Cc1cnn(-c2c(CF)cccc2Oc2ncc(F)cn2)c1 [Compound 151] | 70 | 0 | 0 | 0 | 0 | 0 | 0 | 40 | 5 | 80 | 100 | 35 | 0 | 5 | 25 | 100 | 100 | 100 | 85 | 100 | Barnyardgrass plant response rating (barnyardgrass [1]; [7]): 60; Foxtail, Giant plant response rating (giant foxtail [2]; [7]): 40; Corn plant response rating (corn; [7]): 40; Velvetleaf plant response rating (velvetleaf [6]; [11]): 100
6 | FCc1cccc(Oc2ncc(Cl)cn2)c1-n1cc(Cl)cn1 [Compound 250] | 70 | 0 | 10 | 10 | 10 | 0 | – | 0 | 5 | – | 100 | – | 0 | – | 5 | 85 | – | 100 | 100 | 100 | Plant response rating, Barnyardgrass (barnyardgrass [1]; [14]): 60; Plant response rating, Foxtail, Giant (giant foxtail [2]; [14]): 80; Plant response rating, Corn (corn; [14]): 30; Plant response rating, Wheat (wheat, winter; 62 g ai/ha): 0; Plant response rating, Foxtail, Giant (giant foxtail [5]; 62 g ai/ha): 100; Plant response rating, Pigweed (pigweed; 62 g ai/ha): 100; Plant response rating, Velvetleaf (velvetleaf [6]; 62 g ai/ha): 100
